Assay results: US8871789B2, “Method of preventing or treating viral infection” (The United States of America, as represented by the …, priority 2010, dated 2014)

What was measured:
[1] = system: HSV-1; experiment: HSV-1 IE mRNA levels in infected HFF cells; assay type: cell-based
Protocol: FIG. 13 is a line graph showing viral IE (ICP4, ICP27, and ICP22) and control (S15, Sp1, and TBP) mRNA levels in HFF cells treated with DMSO or the indicated concentrations of ML324 for 3 hours and infected with HSV-1 (0.1 PFU per cell) for 3 hours. *P<0.0001, two-way ANOVA with Tukey's post hoc test. Data are means±SEM.
HSV-1 IE mRNA levels of ICP4 and ICP27 decrease in cells infected in the presence of DMOG. Human foreskin fibroblast (HFF) cells were infected with HSV-1 at 0.1 PFU/cell for 3 hrs in the presence of increasing concentrations of DMOG. Cells were harvested and the levels of viral IE (ICP4, ICP27) and cell control (s15) mRNAs were assessed by qRT-PCR.
All experiments were performed as described in Liang et al., Sci. Transl. Med. 5, 167ra5 (2013). N-(3-(dimethylamino)propyl)-4-(8-hydroxyquinolin-6-yl)benzamide (designated ML324) has the following characteristics: N-(3-(dimethylamino)propyl)-4-(8-hydroxyquinolin-6-yl)benzamide (1). LC-MS: rt (min)=3.033; ^1H NMR (400 MHz, DMSO-d6) δ 1.84-1.98 (m, 2H), 2.79 (s, 3H), 2.80 (s, 3H), 3.12 (ddd, J=10.2 Hz, 5.4 Hz and 5.2 Hz, 2H), 3.37 (q, 2H), 7.50 (s, 1H), 7.66 (dd, J=8.2 Hz and 4.3 Hz, 1H), 7.84 (s, 1H), 7.88-7.94 (m, 2H), 7.96-8.02 (m, 2H), 8.50 (d, J=8.2 Hz, 1H), 8.71 (t, J=5.6 Hz, 1H), 8.90 (d, J=4.1 Hz, 1H), 9.34 (brs, 1H); HRMS (ESI) m/z (M+H)^+ C21H24N3O2, 350.1867. found 350.1863.

[2] = system: HSV-1; experiment: MRC-5 cells infected with HSV-1 at high MOI (IE mRNA, viral yields); assay type: cell-based
Protocol: FIG. 15 is a bar graph showing MRC-5 cells treated with DMSO or 50 mM ML324 that were infected with HSV-1 at the indicated multiplicity of infection (MOI). Viral IE and cellular mRNA levels were quantitated at 2 hours after infection. *P<0.0001, two-way ANOVA with Tukey's post hoc test. Data are means±SEM.
FIG. 16 is a bar graph showing MRC-5 cells treated with DMSO or 50 mM ML324 that were infected with HSV-1 at the indicated MOI. Viral yields were determined at 24 hours after infection. *P<0.0001, two-way ANOVA with Tukey's post hoc test. Data are means±SEM.

[3] = system: HSV-1; experiment: Plaque assay of Vero cells infected with HSV-1; assay type: cell-based; parameters: # Plaques: dose or concentration left out as unconfirmed; conditions: for # Plaques: 12 hours infection, then ACV or ML324 for 48 hours
Protocol: ML324 was ˜75-fold more efficient than DMOG. Additionally, ML324 (i) reduced viral yields in a dose-dependent manner (˜5 logs at 50 mM, FIG. 14); (ii) blocked viral IE gene transcription and reduced viral yields when cells were infected at high multiplicity of infection (MOI; FIGS. 15 and 16); and (iii) suppressed IE gene transcription, even when added at times after infection (>50% reduction at 2 hours after infection; FIG. 17). As further evidence for the efficacy of ML324, cells were infected with HSV to allow for a productive cycle of infection, followed by treatment with DMSO, ACV, or ML324.

[4] = target: T1, JMJD2E (Homo sapiens, UniProt B2RXH2); experiment: AlphaLISA assay, JMJD2E histone demethylase inhibition; assay type: biochemical; conditions: Table 2; JMJD2E; AlphaLISA, in triplicate; read-out: IC50
T1 sequence (B2RXH2 1-506): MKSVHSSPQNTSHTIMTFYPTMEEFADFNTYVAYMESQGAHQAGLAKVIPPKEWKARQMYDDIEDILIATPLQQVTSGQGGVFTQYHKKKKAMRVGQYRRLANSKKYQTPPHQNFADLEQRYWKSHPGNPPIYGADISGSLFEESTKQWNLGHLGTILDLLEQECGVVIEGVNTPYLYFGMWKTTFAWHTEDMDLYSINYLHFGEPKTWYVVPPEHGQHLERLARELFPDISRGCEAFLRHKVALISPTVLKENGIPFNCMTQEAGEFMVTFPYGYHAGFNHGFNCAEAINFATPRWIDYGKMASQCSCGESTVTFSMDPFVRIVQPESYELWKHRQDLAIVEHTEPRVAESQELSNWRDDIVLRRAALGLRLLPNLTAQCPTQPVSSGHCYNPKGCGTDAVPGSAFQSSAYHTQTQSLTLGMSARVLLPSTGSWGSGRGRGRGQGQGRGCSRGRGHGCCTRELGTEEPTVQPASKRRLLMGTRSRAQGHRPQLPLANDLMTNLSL

[5] = treatment after productive cycle of infection

CN(C)CCCNC(=O)c1ccc(-c2cc(O)c3ncccc3c2)cc1 [Compound 4, N-(3-(dimethylamino)propyl)-4-(8-hydroxyquinolin-6-yl)benzamide]
IC50 ([1]; Human alphaherpesvirus 1, HFF, 3 h, read-out: IC50 for reducing IE gene expression): ~10 µM
efficiency relative to DMOG in reducing IE gene expression ([1]; ML324 versus DMOG): ~75 fold
viral IE gene transcription at high multiplicity of infection ([2]; 50 mM ML324, 2 hours after infection, FIG. 15): blocked
viral yields at high multiplicity of infection ([2]; 50 mM ML324, 24 hours after infection, FIG. 16): reduced
# Plaques ([3]; MOI .001): 0
# Plaques ([3]; MOI .01): 2
formation of HSV plaques [3, 5]: markedly suppressed
spread of infection to adjacent cells (UL29 immunofluorescence) [3, 5]: markedly suppressed
IC50 [4]: 0.92 µM
